Experimental data reported in the supplement of paper PMC8967900.

How the values were obtained:
Experiment in all cases: selective drug sensitivity score (sDSS, relative to normal bone marrow) (sDSS (score)); higher = more potent and effective on the cell line relative to normal bone marrow cells
Conditions in all cases: 72 h
PEER = system: PEER
KOPN-8 = system: KOPN-8
P30-OHKUBO = system: P30-OHKUBO
NALM-6 = system: NALM-6
P12-ICHIKAWA = system: P12-ICHIKAWA
REH = system: REH
CCRF-HSB2 = system: CCRF-HSB2
MHH-CALL-3 = system: MHH-CALL-3
MN-60 = system: MN-60
PF-382 = system: PF-382
ALL-PO = system: ALL-PO
CCRF-CEM = system: CCRF-CEM
KASUMI-2 = system: KASUMI-2
RCH-ACV = system: RCH-ACV
ALL-SIL = system: ALL-SIL
MOLT-16 = system: MOLT-16
380 = system: 380
COG-LL-319h = system: COG-LL-319h
NALM-16 = system: NALM-16
SEM cells = system: SEM cells
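Also: ALL cell lines in 384-well plates, five doses spanning 10,000-fold, each plate scaled between vehicle and 100 µmol/L benzalkonium chloride controls, sDSS an adapted area-under-curve metric.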

| SMILES | selective drug sensitivity score (PEER) | selective drug sensitivity score (KOPN-8) | selective drug sensitivity score (P30-OHKUBO) | selective drug sensitivity score (NALM-6) | selective drug sensitivity score (P12-ICHIKAWA) | selective drug sensitivity score (REH) | selective drug sensitivity score (CCRF-HSB2) | selective drug sensitivity score (MHH-CALL-3) | selective drug sensitivity score (MN-60) | selective drug sensitivity score (PF-382) | selective drug sensitivity score (ALL-PO) | selective drug sensitivity score (CCRF-CEM) | selective drug sensitivity score (KASUMI-2) | selective drug sensitivity score (RCH-ACV) | selective drug sensitivity score (ALL-SIL) | selective drug sensitivity score (MOLT-16) | selective drug sensitivity score 380 | selective drug sensitivity score (COG-LL-319h) | selective drug sensitivity score (NALM-16) | selective drug sensitivity score (SEM cells) |
| --- | --- | --- | --- | --- | --- | --- | --- | --- | --- | --- | --- | --- | --- | --- | --- | --- | --- | --- | --- | --- |
| CC(C)Oc1ccc(C(=O)N[C@H](CNC(=O)CN(C)C)Cc2ccc(-c3cn4cccc([C@H](C)O)c4n3)cc2)cc1Cl (top concentration 10000 nM) | 19.9 | 14.2 | 12.8 | 7.68 | 7.28 | 12.1 | 11 | -9.32 | -1.62 | 6.68 | 6.88 | 16.2 | 6.38 | 18 | 12.8 | 20.1 | 10.7 | 14.3 | 1.68 | 8.88 |
| CCn1c(-c2nonc2N)nc2cnc(Oc3cccc(NC(=O)c4ccc(OCCN5CCOCC5)cc4)c3)cc21 (top concentration 10000 nM) | 16.6 | 11.3 | 10.9 | 6.76 | 17.1 | 4.56 | 13.6 | -2.34 | -3.54 | 1.66 | -2.14 | 15.8 | 14.3 | 17.1 | 4.06 | 12.1 | 7.46 | 17.5 | -5.44 | 9.36 |
| CC(C)(C#N)c1cc(Cn2cncn2)cc(C(C)(C)C#N)c1 [Anastrozole] (top concentration 10000 nM) | 0 | 0 | 0 | 0 | 0 | 0 | 0 | 0 | 0 | 0 | 0 | 0 | 0 | 0 | 0 | 0 | 0 | 0 | 0 | 0 |
| Cc1sc2c(c1C)C(c1ccc(Cl)cc1)=N[C@@H](CC(=O)Nc1ccc(O)cc1)c1nnc(C)n1-2 [Birabresib] (top concentration 10000 nM) | -0.08 | 11.6 | 7.22 | 3.72 | 5.22 | -3.18 | -0.98 | 14 | 6.72 | 3.42 | 5.22 | 1.22 | -9.68 | 12 | 0.02 | 7.92 | -9.68 | 13.5 | 1.52 | 11.6 |
| Nc1ccn([C@@H]2O[C@H](CO)[C@@H](O)[C@@H]2O)c(=O)n1 [Cytarabine] (top concentration 10000 nM) | 12.2 | 20.9 | 26.2 | 25.2 | 24.5 | 21.8 | 28.7 | 15.8 | 1.3 | 19.1 | 8.6 | 25.7 | 16.6 | 28.1 | 15.1 | 22.5 | 22.2 | 18.8 | 8.8 | 15.9 |
| COc1cccc2c1C(=O)c1c(O)c3c(c(O)c1C2=O)C[C@@](O)(C(C)=O)C[C@@H]3O[C@H]1C[C@H](N)[C@H](O)[C@H](C)O1 [Daunorubicin] (top concentration 1000 nM) | -3.84 | 6.56 | 6.46 | 6.36 | 6.96 | 6.16 | 12.5 | 16.4 | -0.34 | 1.26 | -0.34 | 9.16 | 10.8 | 12.6 | 1.26 | 13.5 | 13.7 | 16.4 | -2.14 | 6.06 |
| Nc1ncn([C@H]2C[C@H](O)[C@@H](CO)O2)c(=O)n1 [Decitabine] (top concentration 10000 nM) | 2.94 | 10.2 | 4.64 | -3.06 | 1.14 | 3.94 | 1.14 | 2.34 | -5.86 | -1.16 | 4.54 | 4.44 | -2.26 | 10.1 | -3.06 | 5.94 | 9.14 | 10.7 | -2.96 | 1.74 |
| CCN(CC)C(=S)SSC(=S)N(CC)CC [Disulfiram(+CuCl2)] (top concentration 50000 nM) | -2.12 | 15.8 | 0.78 | -2.12 | -2.12 | -0.32 | -2.12 | 1.78 | -2.12 | -0.02 | -2.12 | -2.12 | 5.18 | 5.38 | -2.12 | 13.9 | 1.58 | 18.7 | -2.12 | -2.12 |
| Nc1nc(F)nc2c1ncn2[C@@H]1O[C@H](CO)[C@@H](O)[C@@H]1O [Fludarabine] (top concentration 10000 nM) | -9.3 | 8.4 | 7.7 | 4.6 | -5.5 | -1.3 | 1.5 | 7.5 | -4.5 | -6.6 | 1.6 | 2.3 | 5.3 | 5.9 | 3 | 2.6 | 6.9 | 8.4 | -6 | 4 |
| Nc1nc(OCc2cc(Br)cs2)c2[nH]cnc2n1 [Lomeguatrib] (top concentration 10000 nM) | 0 | 0 | 0 | 0 | 0 | 1.2 | 0 | 0 | 0 | 0 | 0.5 | 0 | 0 | 0.8 | 0 | 0 | 0 | 0 | 0 | 0 |
| Cc1cc(OCc2nnc(SC3CCCC3)n2-c2cccnc2)ccc1-c1ccc(S(C)(=O)=O)cc1 [NMS-873] (top concentration 10000 nM) | 22.9 | 4.06 | 4.66 | 7.36 | 19.9 | 12 | 10.5 | 6.06 | 12.1 | 11.8 | 4.36 | 1.46 | 4.26 | 11.7 | 8.96 | 17.6 | -4.24 | 10.3 | 2.86 | 5.06 |
| COC(=O)c1ccc2c(c1)NC(=O)/C2=C(\Nc1ccc(N(C)C(=O)CN2CCN(C)CC2)cc1)c1ccccc1 [Nintedanib] (top concentration 10000 nM) | 5.94 | -5.26 | -1.46 | -2.36 | -2.96 | -5.16 | 28.6 | -0.26 | -6.36 | 5.04 | 11.1 | -1.46 | -6.36 | 3.64 | 14.3 | -2.26 | -4.56 | 8.74 | -1.76 | 16 |
| O=C(c1cc(Cc2n[nH]c(=O)c3ccccc23)ccc1F)N1CCN(C(=O)C2CC2)CC1 [Olaparib] (top concentration 10000 nM) | 1.28 | 9.68 | 2.98 | 1.48 | -0.82 | 1.48 | 3.98 | 21.9 | -2.42 | -0.52 | -0.12 | 3.78 | 4.78 | 7.38 | -0.02 | 9.08 | 26.8 | 11.7 | -3.42 | 5.18 |
| O=C(O)C(=O)O.[NH-][C@@H]1CCCC[C@H]1[NH-].[Pt+2] [Oxaliplatin] (top concentration 100000 nM) | 0.62 | 16.9 | 14.1 | 6.12 | 8.32 | 10 | 15 | 10.3 | -0.38 | -0.28 | -0.78 | 8.22 | 12.8 | 11.6 | 3.42 | 17.1 | 10.6 | 15.6 | -1.48 | 8.52 |
| CS(=O)(=O)N1CCN(Cc2cc3nc(-c4cccc5[nH]ncc45)nc(N4CCOCC4)c3s2)CC1 [Pictilisib] (top concentration 10000 nM) | -2.24 | 14.8 | 13 | 12.9 | 1.16 | 10.5 | 4.56 | 10.6 | 2.96 | 6.26 | 14.6 | 5.36 | 8.46 | 26.2 | 4.56 | 4.16 | 16.4 | 5.56 | 4.66 | 9.66 |
| CCOC(=O)C1=CCCC[C@H]1S(=O)(=O)Nc1ccc(F)cc1Cl [Resatorvid] (top concentration 10000 nM) | 0 | 0.2 | 0 | 0 | 0 | 0 | 0 | 0 | 0 | 0 | 0 | 0 | 0 | 0 | 0 | 0 | 0 | 0 | 0 | 0 |
| CO[C@H]1C[C@@H]2CC[C@@H](C)[C@@](O)(O2)C(=O)C(=O)N2CCCC[C@H]2C(=O)O[C@H]([C@H](C)C[C@@H]2CC[C@@H](OP(C)(C)=O)[C@H](OC)C2)CC(=O)[C@H](C)/C=C(\C)[C@@H](O)[C@@H](OC)C(=O)[C@H](C)C[C@H](C)/C=C/C=C/C=C/1C [Ridaforolimus] (top concentration 100 nM) | 7.26 | 22.2 | 4.36 | -4.84 | -0.94 | 6.96 | 7.46 | 3.96 | 5.16 | 5.86 | 2.66 | 7.36 | 8.66 | 18.9 | 3.06 | 10.6 | 24.5 | 4.76 | -0.04 | 5.66 |
| CCc1c2c(nc3ccc(O)cc13)-c1cc3c(c(=O)n1C2)COC(=O)[C@]3(O)CC [SN-38] (top concentration 10000 nM) | 12.8 | 28 | 24.6 | 22.1 | 26.5 | 27.2 | 28 | 16.2 | 7.28 | 24.8 | 19.5 | 27.6 | 18.8 | 27.6 | 27.3 | 28.2 | 27 | 26.7 | 13.4 | 25.4 |
